Experimental data taken from patent US9687479B2, “Multisubstituted aromatic compounds as serine protease inhibitors” (VERSEON CORPORATION, priority 2013, dated 2017).

molecular target: Human thrombin (Homo sapiens (Human), UniProt P00734); assay: Thrombin protease activity inhibition assay (chromogenic substrate S-2238); format: biochemical; details: 3 nM thrombin, 125 μM S-2238, 10 min pre-incubation, RT
Experimental: The thrombin activity reported herein (e.g., Table A) was obtained as follows. […] Thrombin was assayed in buffer containing 0.05 M Tris (pH 7.4), 0.015 M NaCl and 0.01% PEG-8000. The final concentration of enzyme used was 3 nM thrombin. […] All assays were performed in 96-well microtiter plates at room temperature (RT). […] Inhibitor IC50 values were determined by adding test compound as ten point, three-fold serial dilutions in buffer solution, as known in the art. The plate was read at 10 minutes after substrate addition. The IC50 was calculated by plotting the percent (%) inhibition against compound concentration and fitting the data to a constrained four parameter sigmoidal curve, as known in the art.

Q: `O=C(c1cccs1)n1nc(-c2cccn(Cc3ncccn3)c2=O)cc1NCc1ccc(Cl)s1` [Cmpd 189, 3-(5-[(5-chlorothiophen-2-yl)methyl]amino-1-[(thiophen-2-yl)carbonyl]-1H-pyrazol-3-yl)-1-(pyrimidin-2-ylmethyl)-1,2-dihydropyridin-2-one] was tested. Which IC50 did it give?
A: Its IC50 is less than 100 nM.

Q: Which IC50 does the source give for `CC1(C(=O)n2nc(-c3cccn(CCN4CCOCC4)c3=O)cc2NCc2ccc(Cl)s2)CCOCC1` [Cmpd 159, 3-(5-[(5-chlorothiophen-2-yl)methyl]amino-1-[(4-methyloxan-4-yl)carbonyl]-1H-pyrazol-3-yl)-1-[2-(morpholin-4-yl)ethyl]-1,2-dihydropyridin-2-one] here?
A: The IC50 was greater than 100000 nM.

Q: For `CCOC(=O)Cn1cccc(-c2cc(NCc3ccc(Cl)s3)n(C(=O)c3ccoc3)n2)c1=O` [Cmpd 259, ethyl 2-[3-(5-[(5-chlorothiophen-2-yl)methyl]amino-1-[(furan-3-yl)carbonyl]-1H-pyrazol-3-yl)-2-oxo-1,2-dihydropyridin-1-yl]acetate], which IC50 is on record?
A: Its IC50 is less than 100 nM.

Q: For `CC(C)(C)c1ccc(C(=O)n2nc(-c3ccc[nH]c3=O)cc2NCc2ccc(Cl)s2)cc1` [Cmpd 253, 3-1-[(4-tert-butylphenyl)carbonyl]-5-[(5-chlorothiophen-2-yl)methyl]amino-1H-pyrazol-3-yl-1,2-dihydropyridin-2-one], which IC50 is on record?
A: Its IC50 is less than 100 nM.

Q: Which IC50 does the source give for `CCOC(=O)Cn1cccc(-c2cc(NCc3ccc(Cl)s3)n(C(=O)c3ccccc3OC)n2)c1=O` [Cmpd 258, ethyl 2-[3-(5-[(5-chlorothiophen-2-yl)methyl]amino-1-[(2-methoxyphenyl)carbonyl]-1H-pyrazol-3-yl)-2-oxo-1,2-dihydropyridin-1-yl]acetate] here?
A: Its IC50 is less than 100 nM.

Q: Which IC50 does the source give for `O=C(c1ccoc1)n1nc(-c2cccn(Cc3ccoc3)c2=O)cc1NCc1ccc(Cl)s1` [Cmpd 173, 3-(5-[(5-chlorothiophen-2-yl)methyl]amino-1-[(furan-3-yl)carbonyl]-1H-pyrazol-3-yl)-1-(furan-3-ylmethyl)-1,2-dihydropyridin-2-one] here?
A: Its IC50 is less than 100 nM.

Q: For `O=C(c1ccccc1)n1nc(-c2cccn(Cc3cccnn3)c2=O)cc1NCc1ccc(Cl)s1` [Cmpd 65, 3-(1-benzoyl-5-[(5-chlorothiophen-2-yl)methyl]amino-1H-pyrazol-3-yl)-1-(pyridazin-3-ylmethyl)-1,2-dihydropyridin-2-one], which IC50 is on record?
A: The IC50 was less than 100 nM.

Q: With `CC(C)(C)OC(=O)Cn1cccc(-c2cc(NCc3ccc(Cl)s3)[nH]n2)c1=O` [Cmpd 264, tert-butyl 2-[3-(5-[(5-chlorothiophen-2-yl)methyl]amino-1H-pyrazol-3-yl)-2-oxo-1,2-dihydropyridin-1-yl]acetate] as the molecule, how does the IC50 read?
A: The IC50 was greater than 100000 nM.

Q: With `CCOC(=O)Cn1cccc(-c2cc(NCc3ccc(Cl)s3)n[nH]2)c1=O` [Cmpd 260, ethyl 2-[3-(5-[(5-chlorothiophen-2-yl)methyl]amino-1H-pyrazol-3-yl)-2-oxo-1,2-dihydropyridin-1-yl]acetate] as the molecule, how does the IC50 read?
A: The IC50 was 10000 to 100000 nM.

Q: With `CC(C)(C)C(=O)n1nc(-c2cccn(Cc3cccc4ccccc34)c2=O)cc1NCc1ccc(Cl)s1` [Cmpd 79, 3-(5-[(5-chlorothiophen-2-yl)methyl]amino-1-(2,2-dimethylpropanoyl)-1H-pyrazol-3-yl)-1-(naphthalen-1-ylmethyl)-1,2-dihydropyridin-2-one] as the molecule, how does the IC50 read?
A: The IC50 was less than 100 nM.

Q: Which IC50 does the source give for `O=c1c(-c2cc(NCc3ccc(Cl)s3)[nH]n2)cccn1Cc1ccsc1` [Cmpd 232, 3-(5-[(5-chlorothiophen-2-yl)methyl]amino-1H-pyrazol-3-yl)-1-(thiophen-3-ylmethyl)-1,2-dihydropyridin-2-one] here?
A: The IC50 was 1000 to 10000 nM.

Q: How did the IC50 turn out when `COc1ccc(C(=O)n2nc(-c3cccn(Cc4cccs4)c3=O)cc2NCc2ccc(Cl)s2)c(OC)c1` [Cmpd 129, 3-(5-[(5-chlorothiophen-2-yl)methyl]amino-1-[(2,4-dimethoxyphenyl)carbonyl]-1H-pyrazol-3-yl)-1-(thiophen-2-ylmethyl)-1,2-dihydropyridin-2-one] was run?
A: Its IC50 is less than 100 nM.

Q: How did the IC50 turn out when `COc1ccccc1C(=O)n1nc(-c2cccn(CC#N)c2=O)cc1NCc1ccc(Cl)s1` [Cmpd 57, 2-[3-(5-[(5-chlorothiophen-2-yl)methyl]amino-1-[(2-methoxyphenyl)carbonyl]-1H-pyrazol-3-yl)-2-oxo-1,2-dihydropyridin-1-yl]acetonitrile] was run?
A: Its IC50 is less than 100 nM.

Q: With `O=C(c1ccccc1)n1nc(-c2cccn(Cc3ccsc3)c2=O)cc1NCc1ccc(Cl)s1` [Cmpd 71, 3-(1-benzoyl-5-[(5-chlorothiophen-2-yl)methyl]amino-1H-pyrazol-3-yl)-1-(thiophen-3-ylmethyl)-1,2-dihydropyridin-2-one] as the molecule, how does the IC50 read?
A: The IC50 was less than 100 nM.

Q: With `O=C(c1ccco1)n1nc(-c2cccn(Cc3cccnc3)c2=O)cc1NCc1ccc(Cl)s1` [Cmpd 165, 3-(5-[(5-chlorothiophen-2-yl)methyl]amino-1-[(furan-2-yl)carbonyl]-1H-pyrazol-3-yl)-1-(pyridin-3-ylmethyl)-1,2-dihydropyridin-2-one] as the molecule, how does the IC50 read?
A: The IC50 was less than 100 nM.

Q: `O=C(c1ccccc1)n1nc(-c2ccc[nH]c2=O)cc1NCc1ccc(Cl)s1` [Cmpd 61, 3-(1-benzoyl-5-[(5-chlorothiophen-2-yl)methyl]amino-1H-pyrazol-3-yl)-1,2-dihydropyridin-2-one] was tested. Which IC50 did it give?
A: The IC50 was less than 100 nM.

Q: How did the IC50 turn out when `CC(C)(C)C(=O)n1nc(-c2cccn(CC#N)c2=O)cc1NCc1ccc(Cl)s1` [Cmpd 56, 2-[3-(5-[(5-chlorothiophen-2-yl)methyl]amino-1-(2,2-dimethylpropanoyl)-1H-pyrazol-3-yl)-2-oxo-1,2-dihydropyridin-1-yl]acetonitrile] was run?
A: The IC50 was less than 100 nM.

Q: Which IC50 does the source give for `CC(C)(C)C(=O)n1nc(-c2cccn(Cc3ccncc3)c2=O)cc1NCc1ccc(Cl)s1` [Cmpd 84, 3-(5-[(5-chlorothiophen-2-yl)methyl]amino-1-(2,2-dimethylpropanoyl)-1H-pyrazol-3-yl)-1-(pyridin-4-ylmethyl)-1,2-dihydropyridin-2-one] here?
A: Its IC50 is less than 100 nM.

Q: `O=C(c1ccc(N2CCOCC2)cc1)n1nc(-c2cccn(Cc3cccs3)c2=O)cc1NCc1ccc(Cl)s1` [Cmpd 216, 3-(5-[(5-chlorothiophen-2-yl)methyl]amino-1-[4-(morpholin-4-yl)phenyl]carbonyl-1H-pyrazol-3-yl)-1-(thiophen-2-ylmethyl)-1,2-dihydropyridin-2-one] was tested. Which IC50 did it give?
A: The IC50 was less than 100 nM.

Q: Which IC50 does the source give for `COc1ccccc1C(=O)n1nc(-c2cccn(Cc3ccc(Cl)cc3)c2=O)cc1NCc1ccc(Cl)s1` [Cmpd 36, 1-[(4-chlorophenyl)methyl]-3-(5-[(5-chlorothiophen-2-yl)methyl]amino-1-[(2-methoxyphenyl)carbonyl]-1H-pyrazol-3-yl)-1,2-dihydropyridin-2-one] here?
A: Its IC50 is less than 100 nM.

Q: Which IC50 does the source give for `COc1ccccc1C(=O)n1nc(-c2cccn(Cc3ccccn3)c2=O)cc1NCc1ccc(Cl)s1` [Cmpd 139, 3-(5-[(5-chlorothiophen-2-yl)methyl]amino-1-[(2-methoxyphenyl)carbonyl]-1H-pyrazol-3-yl)-1-(pyridin-2-ylmethyl)-1,2-dihydropyridin-2-one] here?
A: The IC50 was less than 100 nM.

Q: `Nc1cc(-c2cccn(Cc3ccccn3)c2=O)nn1C(=O)c1ccco1` [Cmpd 256, 3-5-amino-1-[(furan-2-yl)carbonyl]-1H-pyrazol-3-yl-1-(pyridin-2-ylmethyl)-1,2-dihydropyridin-2-one] was tested. Which IC50 did it give?
A: The IC50 was 1000 to 10000 nM.

Q: For `O=C(c1ccco1)n1nc(-c2cccn(Cc3ccccn3)c2=O)cc1NCc1ccc(Cl)s1` [Cmpd 164, 3-(5-[(5-chlorothiophen-2-yl)methyl]amino-1-[(furan-2-yl)carbonyl]-1H-pyrazol-3-yl)-1-(pyridin-2-ylmethyl)-1,2-dihydropyridin-2-one], which IC50 is on record?
A: The IC50 was less than 100 nM.

Q: How did the IC50 turn out when `COc1ccccc1C(=O)n1nc(-c2cccn(Cc3ccccc3Cl)c2=O)cc1NCc1ccc(Cl)s1` [Cmpd 28, 1-[(2-chlorophenyl)methyl]-3-(5-[(5-chlorothiophen-2-yl)methyl]amino-1-[(2-methoxyphenyl)carbonyl]-1H-pyrazol-3-yl)-1,2-dihydropyridin-2-one] was run?
A: The IC50 was less than 100 nM.

Q: For `O=C(c1cccc2c1OCCO2)n1nc(-c2cccn(Cc3cccnc3)c2=O)cc1NCc1ccc(Cl)s1` [Cmpd 114, 3-(5-[(5-chlorothiophen-2-yl)methyl]amino-1-[(2,3-dihydro-1,4-benzodioxin-5-yl)carbonyl]-1H-pyrazol-3-yl)-1-(pyridin-3-ylmethyl)-1,2-dihydropyridin-2-one], which IC50 is on record?
A: The IC50 was less than 100 nM.

Q: How did the IC50 turn out when `CC1(C(=O)n2nc(-c3cccn(Cc4cccnc4)c3=O)cc2NCc2ccc(Cl)s2)CCOCC1` [Cmpd 154, 3-(5-[(5-chlorothiophen-2-yl)methyl]amino-1-[(4-methyloxan-4-yl)carbonyl]-1H-pyrazol-3-yl)-1-(pyridin-3-ylmethyl)-1,2-dihydropyridin-2-one] was run?
A: The IC50 was less than 100 nM.

Q: How did the IC50 turn out when `O=C(c1ccoc1)n1nc(-c2cccn(Cc3ccccc3Cl)c2=O)cc1NCc1ccc(Cl)s1` [Cmpd 29, 1-[(2-chlorophenyl)methyl]-3-(5-[(5-chlorothiophen-2-yl)methyl]amino-1-[(furan-3-yl)carbonyl]-1H-pyrazol-3-yl)-1,2-dihydropyridin-2-one] was run?
A: The IC50 was less than 100 nM.

Q: With `O=C(c1cccs1)n1nc(-c2cccn(Cc3ccco3)c2=O)cc1NCc1ccc(Cl)s1` [Cmpd 183, 3-(5-[(5-chlorothiophen-2-yl)methyl]amino-1-[(thiophen-2-yl)carbonyl]-1H-pyrazol-3-yl)-1-(furan-2-ylmethyl)-1,2-dihydropyridin-2-one] as the molecule, how does the IC50 read?
A: The IC50 was less than 100 nM.

Q: How did the IC50 turn out when `O=C(c1cccc2c1OCCO2)n1nc(-c2cccn(Cc3ccco3)c2=O)cc1NCc1ccc(Cl)s1` [Cmpd 110, 3-(5-[(5-chlorothiophen-2-yl)methyl]amino-1-[(2,3-dihydro-1,4-benzodioxin-5-yl)carbonyl]-1H-pyrazol-3-yl)-1-(furan-2-ylmethyl)-1,2-dihydropyridin-2-one] was run?
A: Its IC50 is less than 100 nM.

Q: For `O=C(c1ccsc1)n1nc(-c2cccn(CCN3CCOCC3)c2=O)cc1NCc1ccc(Cl)s1` [Cmpd 204, 3-(5-[(5-chlorothiophen-2-yl)methyl]amino-1-[(thiophen-3-yl)carbonyl]-1H-pyrazol-3-yl)-1-[2-(morpholin-4-yl)ethyl]-1,2-dihydropyridin-2-one], which IC50 is on record?
A: Its IC50 is less than 100 nM.
